The record followed here is ChEMBL document CHEMBL5724709, “EUbOPEN Chemogenomics Library - IncuCyte” (2024).

Holding throughout (type): toxicity, cell-based
Data set [1] has as its system HEK-293T. The data set is described as follows: Incucyte cell viability with HEK293T. The following applies: human, 24 h, 10 µM, compound concentration 10 uM.
Data set [2] relates to Fibroblast. The data set is described as follows: Incucyte cell viability with human fibroblast. The settings on record: 24 h, 10 µM, compound concentration 10 uM.
Data set [3] concerns U2OS. The data set can be described thus: Incucyte cell viability with U2OS. The following applies: human, 24 h, 10 µM, compound concentration 10 uM.
Also: unitless GR value; below 1 slowed growth and below 0 cell loss.

Take `CC#C[C@]1(O)CC[C@H]2[C@@H]3CCC4=CC(=O)CCC4=C3[C@@H](c3ccc(N(C)C)cc3)C[C@@]21C` [MIFEPRISTONE]: the “Growth Rate” value is on record as 0.49 in data set [1] (replicate number 1); 1 in data set [1] (replicate number 2); 1 in data set [2] (replicate number 1); 0.84 in data set [3] (replicate number 1); 0.66 in data set [3] (replicate number 2).

For the molecule `Nc1ccccc1NC(=O)c1ccc(CNc2nccc(-c3cccnc3)n2)cc1` [MOCETINOSTAT], the “Growth Rate” value in data set [1] (replicate number 1) was 0.33; in data set [1] (replicate number 2) it was 0.39; in data set [2] (replicate number 1) it was 1; in data set [2] (replicate number 2), -0.28; in data set [3] (replicate number 1) it was -0.13; in data set [3] (replicate number 2), 0.28.

For `CCCCN(Cc1ccc(C(=O)NO)cc1)C(=O)Nc1ccccc1` [NEXTURASTAT A], the “Growth Rate” value is on record as 1 in data set [1] (replicate number 1); 1 in data set [2] (replicate number 1); -0.22 in data set [2] (replicate number 2); -0.18 in data set [3] (replicate number 1); 0.6 in data set [3] (replicate number 2).

Regarding `CC(C)(F)C[C@H](N[C@@H](c1ccc(-c2ccc(S(C)(=O)=O)cc2)cc1)C(F)(F)F)C(=O)NC1(C#N)CC1` [ODANACATIB], the “Growth Rate” value in data set [1] (replicate number 1) was determined as 0.9; in data set [1] (replicate number 2) it was 0.87; in data set [2] (replicate number 1), 0.39; in data set [2] (replicate number 2) it was 1; in data set [3] (replicate number 1), 0.65; in data set [3] (replicate number 2) it was 1.

On to `CC(C)c1cc(C(=O)N2Cc3ccc(CN4CCN(C)CC4)cc3C2)c(O)cc1O` [ONALESPIB], for which the “Growth Rate” value in data set [1] (replicate number 1) is -0.26; in data set [1] (replicate number 2), -0.15; in data set [2] (replicate number 1), 0.29; in data set [2] (replicate number 2) it was 0.25; in data set [3] (replicate number 1), -0.07; in data set [3] (replicate number 2), 0.05.

`Nc1nc2cc(CC[C@H]3C[C@@H](n4ccc5c(N)ncnc54)[C@H](O)[C@@H]3O)ccc2cc1Br` [ONAMETOSTAT]: the “Growth Rate” value in data set [1] (replicate number 1) was -0.14; in data set [1] (replicate number 2), -0.01; in data set [2] (replicate number 1), 0.43; in data set [2] (replicate number 2), 0.06; in data set [3] (replicate number 1) it was 0.19; in data set [3] (replicate number 2) it was 1.

As to `COc1ccc2c(c1)OC(C)(C)C(c1ccccc1)C2c1ccc(OCCN2CCCC2)cc1` (configuration not stated) [ORMELOXIFENE], the “Growth Rate” value in data set [1] (replicate number 1) stood at 0.93; in data set [1] (replicate number 2), 0.92; in data set [2] (replicate number 1), 1; in data set [2] (replicate number 2), 0.9; in data set [3] (replicate number 1) it was 1; in data set [3] (replicate number 2), 0.75.

For `CC(=O)N1CCC(Nc2cc(C(=O)NC[C@H](O)CN3CCc4ccccc4C3)ncn2)CC1` [PEMRAMETOSTAT], the “Growth Rate” value in data set [1] (replicate number 1) amounted to 0.9; in data set [1] (replicate number 2), 1; in data set [2] (replicate number 1), 1; in data set [3] (replicate number 1), 0.26; in data set [3] (replicate number 2), 1.

`CC(C)N(C[C@H]1O[C@@H](n2cnc3c(N)ncnc32)[C@H](O)[C@@H]1O)[C@H]1C[C@@H](CCc2nc3cc(C(C)(C)C)ccc3[nH]2)C1` [PINOMETOSTAT]: the “Growth Rate” value came to 0.61 in data set [1] (replicate number 1); 0.77 in data set [1] (replicate number 2); 1 in data set [2] (replicate number 1); 1 in data set [3] (replicate number 1); 0.85 in data set [3] (replicate number 2).

As for `COc1cc(Nc2ncc(F)c(Nc3ccc4c(n3)NC(=O)C(C)(C)O4)n2)cc(OC)c1OC` [R-406], the “Growth Rate” value in data set [1] (replicate number 1) is on record as 0.1; in data set [1] (replicate number 2), 0.27; in data set [2] (replicate number 1), -0.02; in data set [2] (replicate number 2), -0.68; in data set [3] (replicate number 1), -0.31; in data set [3] (replicate number 2), -0.21.

Consider `O=C(CCCCCCNC(=O)c1cnc(N(c2ccccc2)c2ccccc2)nc1)NO` [RICOLINOSTAT], for which the “Growth Rate” value is on record as 0.73 in data set [1] (replicate number 1); 1 in data set [1] (replicate number 2); 0.23 in data set [2] (replicate number 1); -0.16 in data set [2] (replicate number 2); 0 in data set [3] (replicate number 1); 0.16 in data set [3] (replicate number 2).

As for `C/C=C1\NC(=O)[C@H]2CSSCC/C=C/[C@H](CC(=O)N[C@H](C(C)C)C(=O)N2)OC(=O)[C@H](C(C)C)NC1=O` [ROMIDEPSIN], the “Growth Rate” value is listed as 0.73 in data set [1] (replicate number 1); 0.96 in data set [2] (replicate number 1); -0.41 in data set [2] (replicate number 2); 1 in data set [3] (replicate number 1); 0.29 in data set [3] (replicate number 2).

For the molecule `Nc1ncnc2c1ncn2[C@@H]1O[C@H](C[C@@H](N)CC[C@H](N)C(=O)O)[C@@H](O)[C@H]1O` [SINEFUNGIN], the “Growth Rate” value in data set [1] (replicate number 1) was 0.85; in data set [1] (replicate number 2), 0.88; in data set [2] (replicate number 1) it was 0.66; in data set [2] (replicate number 2) it was -0.28; in data set [3] (replicate number 1), 0.54; in data set [3] (replicate number 2) it was 1.

As to `Cc1ccc(C(=O)Nc2ccc(S(=O)(=O)[O-])c3cc(S(=O)(=O)[O-])cc(S(=O)(=O)[O-])c23)cc1NC(=O)c1cccc(NC(=O)Nc2cccc(C(=O)Nc3cc(C(=O)Nc4ccc(S(=O)(=O)[O-])c5cc(S(=O)(=O)[O-])cc(S(=O)(=O)[O-])c45)ccc3C)c2)c1.[Na+].[Na+].[Na+].[Na+].[Na+].[Na+]` [SURAMIN HEXASODIUM], the “Growth Rate” value in data set [1] (replicate number 1) is 0.7; in data set [1] (replicate number 2), 0.83; in data set [2] (replicate number 1) it was 0.42; in data set [2] (replicate number 2), 0.59; in data set [3] (replicate number 1), 1.

Turning to `CCN(c1cc(-c2ccc(CN3CCOCC3)cc2)cc(C(=O)NCc2c(C)cc(C)[nH]c2=O)c1C)C1CCOCC1` [TAZEMETOSTAT], the “Growth Rate” value amounted to 0.68 in data set [1] (replicate number 1); 0.82 in data set [1] (replicate number 2); 0.54 in data set [2] (replicate number 1); 0.43 in data set [3] (replicate number 1); 0.87 in data set [3] (replicate number 2).

On to `O=C(CCCCCCC(=O)Nc1ccc([C@H]2O[C@@H](CSc3nc(-c4ccccc4)c(-c4ccccc4)o3)C[C@@H](c3ccc(CO)cc3)O2)cc1)NO` [TUBACIN], for which the “Growth Rate” value in data set [1] (replicate number 1) is 0.85; in data set [1] (replicate number 2) it was 1; in data set [2] (replicate number 1) it was 1; in data set [2] (replicate number 2), -0.34; in data set [3] (replicate number 1), 1; in data set [3] (replicate number 2) it was 0.73.

Take `Nc1cc(F)ccc1NC(=O)c1ccc(CNC(=O)/C=C/c2cccnc2)cc1` [TUCIDINOSTAT]: the “Growth Rate” value in data set [1] (replicate number 1) was 1; in data set [2] (replicate number 1) it was 1; in data set [3] (replicate number 1), -0.5; in data set [3] (replicate number 2) it was 0.82.

`CC(=O)O[C@]1(C(C)=O)CC[C@H]2[C@@H]3CCC4=CC(=O)CCC4=C3[C@@H](c3ccc(N(C)C)cc3)C[C@@]21C` [ULIPRISTAL ACETATE]: the “Growth Rate” value in data set [1] (replicate number 1) was found to be 0.78; in data set [1] (replicate number 2), 0.96; in data set [2] (replicate number 1), 0.18; in data set [2] (replicate number 2) it was 0.99; in data set [3] (replicate number 1) it was 0.94; in data set [3] (replicate number 2), 0.78.

Regarding `CC(C)Nc1cc(-c2c[nH]c(C(=O)N[C@H](CO)c3cccc(Cl)c3)c2)c(Cl)cn1` [ULIXERTINIB], the “Growth Rate” value was 1 in data set [1] (replicate number 1); 0.93 in data set [2] (replicate number 1); 0.08 in data set [2] (replicate number 2); 0.68 in data set [3] (replicate number 1); 0.74 in data set [3] (replicate number 2).

Turning to `Cc1cc(C)c(CNC(=O)c2cc(Cl)c3c(c2C)O[C@@](C)([C@H]2CC[C@H](N(C)C)CC2)O3)c(=O)[nH]1` [VALEMETOSTAT], the “Growth Rate” value in data set [1] (replicate number 1) was 0.77; in data set [1] (replicate number 2), 0.96; in data set [2] (replicate number 1), 1; in data set [2] (replicate number 2) it was 0.46; in data set [3] (replicate number 1), 0.4; in data set [3] (replicate number 2), 0.98.

On to `COc1cc2c(Nc3ccc(Br)cc3F)ncnc2cc1OCC1CCN(C)CC1` [VANDETANIB], for which the “Growth Rate” value in data set [1] (replicate number 1) is -0.15; in data set [1] (replicate number 2) it was 0.26; in data set [2] (replicate number 1), 0.22; in data set [2] (replicate number 2) it was -0.22; in data set [3] (replicate number 1), -0.56; in data set [3] (replicate number 2), 0.01.

Take `Cc1nc(-c2cnc(NC(C)C)n(C)c2=O)ccc1Oc1ccnc(-c2cnn(C)c2)c1` [VIMSELTINIB]: the “Growth Rate” value in data set [1] (replicate number 1) is listed as 0.39; in data set [1] (replicate number 2), 0.02; in data set [2] (replicate number 1), 0.29; in data set [2] (replicate number 2), -0.35; in data set [3] (replicate number 1), 0.42; in data set [3] (replicate number 2), 0.46.
